Test results as given in patent publication US20090233848A1, “Pea15 as a Tumor Suppressor Gene” (priority 2004, published 2009).

Tested on: MDA-MB-361 tumor xenografts
Test: Tumor growth in HER2-overexpressing MDA-MB-361 breast cancer xenograft model
Format: in vivo, nude mice
Settings: 20 μg DNA; paclitaxel 15 mg/kg i.p.; compared with LPD-Luciferase
Procedure: Female nude mice were inoculated with HER2-overexpressing MDA-MB-361 cells in the mammary fat pad. After the formation of 8-10 tumors per group (5 animals per group, -2 tumors per animal), mice were given one of the following treatments: naked E1A DNA (20 μg DNA, light circles), vehicle only (small squares), LPD-luciferase (20 μg DNA, triangles), LPD-E1A (20 μg DNA, dark circles), paclitaxel (15 mg/kg, light triangles), or LPD-E1A (20 μg DNA) plus paclitaxel (15 mg/kg) (large squares). The tumor growth ratio was determined by comparing the size of the treated tumors with the size of the original tumor before any treatment. The error bars indicate s.e.m.

Compound: CC(=O)O[C@H]1C(=O)[C@@]2(C)[C@H]([C@H](OC(=O)c3ccccc3)[C@]3(O)C[C@H](OC(=O)[C@H](O)[C@@H](NC(=O)c4ccccc4)c4ccccc4)C(C)=C1C3(C)C)[C@]1(OC(C)=O)CO[C@@H]1C[C@@H]2O [paclitaxel]
- tumor growth: decreased tumor growth
